Laboratory results as given in ChEMBL document CHEMBL5512643, “Structure-based discovery of potent myosin inhibitors to guide antiparasite drug development” (Eur J Med Chem, 2024).
≈ marks a conversion by molar mass, not a printed value. Calls of active or inactive are those of the source. No cut-off for these calls is given here.

Legend:
Gyrodactylus kobayashii [1] = experiment: Antiparasitic activity against Gyrodactylus kobayashii infected in gold fish measured upto 48 hrs by stereomicroscope analysis; type: functional, organism-based
[2] = Acute toxicity in gold fish infected with Gyrodactylus kobayashii measure upto 48 hrs by microscopic analysis; settings: carassius auratus
[3] = Inhibition of wild type Gyrodactylus kobayashii Myosin ATPase activity incubated for 30 mins
Gyrodactylus kobayashii [4] = experiment: Binding affinity to Gyrodactylus kobayashii Myosin expressed in Escherichia coli BL21 assessed as thermal stabilization at 1 mM at 40 to 50 degreeC by CETSA analysis
[5] = Inhibition of Gyrodactylus kobayashii Myosin N439A mutant ATPase activity incubated for 30 min
[6] = Therapeutic index, ratio of LC50 for acute toxicity in gold fish infected with Gyrodactylus kobayashii to EC50 for antiparasitic activity against Gyrodactylus kobayashii infected in gold fish; settings: goldfish
SARS-CoV-2 = experiment: Antiviral activity against SARS-CoV-2 infected in African green monkey Vero cells assessed as inhibition of viral replication pretreated with compound for 2 hr followed by viral infection and measured after 48 hrs by indirect immunofluorescence assay; type: functional, organism-based; settings: Severe acute respiratory syndrome coronavirus 2, Vero
[7] = Gyrodactylus kobayashii, 48 h, read-out: EC50

Row | Compound | EC50 (Gyrodactylus kobayashii [1]; [7]) [µg/mL] | LC50 at 48 h [2] [µg/mL] | also measured
1 | O=C(/C=C/c1ccccc1)c1ccccc1 [CHALCONE] | 1.08 (≈ 5.21 µM) | 7.66 (≈ 36.8 µM) | IC50 [3]: 440 µM
2 | C[C@@H]1O[C@@H](Oc2cc(O)c3c(=O)c(O)c(-c4ccc(O)cc4)oc3c2)[C@H](O)[C@H](O)[C@H]1O [ALPHA-RHAMNOISOROBIN] | 8.27 (≈ 19.1 µM) | 9.3 (≈ 21.5 µM) | 
3 | COc1cc(C[C@H]2C(=O)OC[C@@H]2Cc2ccc(OC)c(OC)c2)ccc1O [ARCTIGENIN] | 1.85 (≈ 4.97 µM) | 11.6 (≈ 31.2 µM) | Activity (Gyrodactylus kobayashii [4]): Active; IC50 [5]: 3210 µM; IC50 [3]: 677 µM
4 | CC(C)=CC[C@@H](O)C1=CC(=O)c2c(O)ccc(O)c2C1=O [SHIKONIN] | 0.371 (≈ 1.29 µM) | 1.29 (≈ 4.47 µM) | selectivity ratio [6]: 3.49; EC50 (Gyrodactylus kobayashii [1]): 0.37 µg/mL (≈ 1.28 µM); IC50 [3]: 140 µM
5 | O=C1C=C(O)C(=O)c2ccccc21 [LAWSONE] | 3.53 (≈ 20.3 µM) | 10.7 (≈ 61.4 µM) | selectivity ratio [6]: 3.03
6 | C[C@@H]1O[C@@H](Oc2cc(O)c3c(=O)c(O)c(-c4ccc(O)cc4)oc3c2O)[C@H](O)[C@H](O[C@@H]2O[C@H](CO)[C@@H](O)[C@H](O)[C@H]2O)[C@H]1O | 11.3 (≈ 18.5 µM) | 13.2 (≈ 21.7 µM) | 
7 | NC(=O)[C@@H]1CCCN1C(=O)[C@H](Cc1cnc[nH]1)NC(=O)[C@@H]1CCC(=O)N1 [PROTIRELIN] | 9.52 (≈ 26.3 µM) | 16.3 (≈ 44.9 µM) | 
8 | COc1ccc(CCC(=O)c2c(O)cc(O[C@@H]3O[C@H](CO)[C@@H](O)[C@H](O)[C@H]3O[C@@H]3O[C@@H](C)[C@H](O)[C@@H](O)[C@H]3O)cc2O)cc1O [NEOHESPERIDIN DIHYDROCHALCONE] | 13.4 (≈ 21.9 µM) | 25.5 (≈ 41.6 µM) | 
9 | COC(=O)[C@H]1O[C@@H](Oc2cc3oc(-c4ccc(O)cc4)cc(=O)c3c(O)c2O)[C@H](O)[C@@H](O)[C@@H]1O | 7.23 (≈ 15.2 µM) | 11.4 (≈ 23.9 µM) | 
10 | C#CCC(Cc1cnc2nc(N)nc(N)c2n1)c1ccc(C(=O)N[C@@H](CCC(=O)O)C(=O)O)cc1 (some centres not stated) [PRALATREXATE] |  |  | EC50 (SARS-CoV-2): 0.008 µM
11 | O=C(O)[C@H]1O[C@@H](Oc2cc3oc(-c4ccc(O)cc4)cc(=O)c3c(O)c2O)[C@H](O)[C@@H](O)[C@@H]1O [SCUTELLARIN] | 7.15 (≈ 15.5 µM) | 13.3 (≈ 28.7 µM) | 
12 | C[C@@H]1O[C@@H](O[C@H]2C(=O)c3c(O)cc(O)cc3O[C@H]2c2ccc(O)c(O)c2)[C@H](O)[C@H](O)[C@H]1O | 15.9 (≈ 35.3 µM) | 26.5 (≈ 58.7 µM) | LC50 ([2]; 48 h): 24.975 µg/mL (≈ 55.5 µM)
13 | O=C1C=CC(=O)c2c(O)cccc21 [JUGLONE] | 0.72 (≈ 4.13 µM) |  | 
14 | O=C1OC[C@H]2O[C@@H](Oc3cc(O)c(C(=O)CCc4ccccc4)c(O)c3)[C@H](O)[C@@H](O)[C@@H]2OC(=O)c2cc(O)c(O)c(O)c2-c2c1cc(O)c(O)c2O [THONNINGIANIN B] | 6.31 (≈ 8.73 µM) | 21.5 (≈ 29.8 µM) | 
15 | COc1cc(C2Oc3ccc(C4Oc5cc(O)cc(O)c5C(=O)C4O)cc3OC2CO)ccc1O (configuration not stated) | 7.53 (≈ 15.6 µM) | 26.2 (≈ 54.4 µM) | 
16 | CCCCC[C@H](O)/C=C/[C@H]1[C@H](O)CC(=O)[C@@H]1CCCCCCC(=O)O [ALPROSTADIL] | 16.2 (≈ 45.8 µM) | 30.5 (≈ 86 µM) | 
17 | CC1=CC(=O)c2ccccc2C1=O [MENADIONE] | 0.341 (≈ 1.98 µM) | 1.19 (≈ 6.93 µM) | selectivity ratio [6]: 3.5
18 | CO[C@H]1C[C@H](O[C@H]2CC[C@]3(C)[C@H]4CC[C@]5(C)[C@@H](C6=CC(=O)OC6)CC[C@]5(O)[C@@H]4CC[C@]3(O)C2)O[C@H](C)[C@H]1O[C@@H]1O[C@H](CO)[C@@H](O)[C@H](O)[C@H]1O | 3.89 (≈ 5.59 µM) | 4.12 (≈ 5.92 µM) | 
19 | O=c1cc(-c2ccccc2)oc2c([C@@H]3OC[C@H](O)[C@H](O)[C@H]3O)c(O)c([C@@H]3O[C@H](CO)[C@@H](O)[C@H](O)[C@H]3O)c(O)c12 | 7.58 (≈ 13.8 µM) |  | 
20 | Cc1c([C@H](C)[C@@H]2NC[C@@H](C)C[C@H]2O)ccc2c1C[C@H]1[C@H]2CC=C2C[C@@H](O[C@@H]3O[C@H](CO)[C@@H](O)[C@H](O)[C@H]3O)CC[C@@]21C | 4.58 (≈ 8.02 µM) | 15.2 (≈ 26.7 µM) | 
21 | O=C1C=CC(=O)c2ccccc21 [NAPHTHOQUINONE] | 0.047 (≈ 0.297 µM) | 0.23 (≈ 1.45 µM) | selectivity ratio [6]: 4.89
22 | O=C1c2ccccc2C(=O)c2c1cc(O[C@@H]1O[C@H](CO[C@@H]3OC[C@@H](O)[C@H](O)[C@H]3O)[C@@H](O)[C@H](O)[C@H]1O)c(CO)c2O [LUCIDIN PRIMEVOROSIDE] | 4.15 (≈ 7.35 µM) | 8.24 (≈ 14.6 µM) | 
